This note sets out measurements from PubChem BioAssay AID330 (DTP/NCI, 2004).

The assay deals with P388 leukemia ip, CD2F1 mice, survival T/C. As to the kind of experiment: NCI In Vivo Anticancer Drug Screen. Data for tumor model P388 Leukemia (intraperitoneal) in CD2F1 (CDF1) mice. The conditions noted are these: endpoint: median survival time, higher = longer survival. In outline:
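Mice carrying the transplanted tumor received test compound or vehicle. Survival was recorded in each group, and the value is the treated-group measurement divided by that of the vehicle-treated control group.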

Where [1] appears, read: dose: 60.0 mg/kg/injection, schedule: Q01DX005 (ip), vehicle: Klucel (hydroxypropylcellulose) (HPC).
The mark [2] stands for this setting: dose: 120.0 mg/kg/injection, schedule: Q01DX005 (ip), vehicle: Klucel (hydroxypropylcellulose) (HPC).
The mark [3] stands for this setting: dose: 240.0 mg/kg/injection, schedule: Q01DX005 (ip), vehicle: Klucel (hydroxypropylcellulose) (HPC).
Setting [4] is: dose: 100.0 mg/kg/injection, schedule: Q01DX009 (ip), vehicle: saline with Tween-80.
Where [5] appears, read: dose: 50.0 mg/kg/injection, schedule: Q01DX005 (ip), vehicle: Klucel (hydroxypropylcellulose) (HPC).
[6] abbreviates: dose: 100.0 mg/kg/injection, schedule: Q01DX005 (ip), vehicle: Klucel (hydroxypropylcellulose) (HPC).
Setting [7] is: dose: 200.0 mg/kg/injection, schedule: Q01DX005 (ip), vehicle: Klucel (hydroxypropylcellulose) (HPC).
The mark [8] stands for this setting: dose: 50.0 mg/kg/injection, schedule: Q01DX005 (ip), vehicle: saline with Tween-80.
Setting [9] is: dose: 100.0 mg/kg/injection, schedule: Q01DX005 (ip), vehicle: saline with Tween-80.
The mark [10] stands for this setting: dose: 200.0 mg/kg/injection, schedule: Q01DX005 (ip), vehicle: saline with Tween-80.
Setting [11] is: dose: 25.0 mg/kg/injection, schedule: Q01DX009 (ip), vehicle: saline.
Where [12] appears, read: dose: 50.0 mg/kg/injection, schedule: Q01DX009 (ip), vehicle: saline.
Where [13] appears, read: dose: 200.0 mg/kg/injection, schedule: Q01DX009 (ip), vehicle: saline with Tween-80.
Setting [14] is: dose: 12.5 mg/kg/injection, schedule: Q01DX005 (ip), vehicle: saline with Tween-80.
The mark [15] stands for this setting: dose: 25.0 mg/kg/injection, schedule: Q01DX005 (ip), vehicle: saline with Tween-80.

Where “and” joins values, the source holds several entries; their conditions need not be identical. Identical values can stand only once. Toxic doses and inconclusive results are not listed.

Take `C=C1C2(O)CCC(C2)C1(C)C` (stereo not given): the T/C is, setting by setting: under setting [1], 108 % of control; under setting [2], 106 % of control; under setting [3], 100 % of control.
Take `CCNCc1c(C)[nH]c2ccccc2c1=O`: the T/C is, setting by setting: (dose: 3.12 mg/kg/injection, schedule: Q01DX009 (ip), vehicle: saline with Tween-80) 100 % of control; (dose: 6.25 mg/kg/injection, schedule: Q01DX009 (ip), vehicle: saline with Tween-80) 101 % of control; (dose: 12.5 mg/kg/injection, schedule: Q01DX009 (ip), vehicle: saline with Tween-80) 102 % of control; (dose: 25.0 mg/kg/injection, schedule: Q01DX009 (ip), vehicle: saline with Tween-80) 105 % of control; under setting [4], 91 % of control.
Turning to `C=CC1CC[N-]CC1.C=CC1CC[N-]CC1.C=CC1CC[N-]CC1.[Cl][Cr]([Cl])[Cl]`, the T/C is 100 % of control (dose: 12.5 mg/kg/injection, schedule: Q04DX003 (ip), vehicle: saline with Tween-80); 100 % of control (dose: 25.0 mg/kg/injection, schedule: Q04DX003 (ip), vehicle: saline with Tween-80); 100 % of control (dose: 50.0 mg/kg/injection, schedule: Q04DX003 (ip), vehicle: saline with Tween-80).
With `C(=Nc1ccc2ccc3cccc4ccc1c2c34)c1ccncc1`, the T/C (dose: 25.0 mg/kg/injection, schedule: Q01DX005 (ip), vehicle: Klucel (hydroxypropylcellulose) (HPC)) was 102 % of control; the T/C under setting [5] is 100 % of control; the T/C under setting [6] was 100 % of control; the T/C under setting [7] is 92 % of control.
For `Nc1nc(-c2ccc(Nc3ccnc4cc(Cl)ccc34)cc2)cs1`, the T/C runs as follows: under setting [8], 96 % of control; under setting [9], 88 % of control; under setting [10], 86 % of control.
The like results for `COC(=O)C1(c2ccccc2)N=NN=C1N(C)C` (stereo not given) were, in that order, 98 % of control, 106 % of control and 110 % of control.
For the molecule `CC(=O)Nc1ccccc1C(=O)C(=O)Nc1ccccc1C(=O)NN`, the T/C is 106 % of control (dose: 60.0 mg/kg/injection, schedule: Q01DX005 (ip), vehicle: saline with Tween-80); 89 % of control (dose: 120.0 mg/kg/injection, schedule: Q01DX005 (ip), vehicle: saline with Tween-80); 87 % of control (dose: 240.0 mg/kg/injection, schedule: Q01DX005 (ip), vehicle: saline with Tween-80).
With `CC(NNC(=S)N1CCCC1)c1ccc2ccccc2n1` (stereo not given), the T/C runs as follows: under setting [8], 94 % of control; under setting [9], 94 % of control; under setting [10], 94 % of control.
Turning to `COc1ccc(N2CCN(/C=C3\Cc4c(F)cccc4C3=O)CC2)cc1`, the T/C runs as follows: (dose: 100.0 mg/kg/injection, schedule: Q04DX003 (ip), vehicle: Klucel (hydroxypropylcellulose) (HPC)) 97 % of control; (dose: 200.0 mg/kg/injection, schedule: Q04DX003 (ip), vehicle: Klucel (hydroxypropylcellulose) (HPC)) 103 % of control; (dose: 400.0 mg/kg/injection, schedule: Q04DX003 (ip), vehicle: Klucel (hydroxypropylcellulose) (HPC)) 101 % of control.
For `COC(=O)c1nc(=S)[nH]c(C(=O)OC)c1C(=O)c1ccc([N+](=O)[O-])cc1`, the T/C reads like this: under setting [1], 101 % of control; under setting [2], 95 % of control; under setting [3], 91 % of control.
As for `O=C(CNC(=O)c1ccccc1)Nc1ccccc1`, the T/C by setting is: under setting [11], 115 % of control; under setting [12], 103 % of control; (dose: 100.0 mg/kg/injection, schedule: Q01DX009 (ip), vehicle: saline) 94 % of control; (dose: 200.0 mg/kg/injection, schedule: Q01DX009 (ip), vehicle: saline) 104 % of control.
For the molecule `O=P(OCC(Br)CBr)(OCC(Br)CBr)OCC(Br)CBr` (stereo not given), the T/C reads like this: under setting [4], 112 % of control and 114 % of control; under setting [13], 106 % of control and 109 % of control; (dose: 400.0 mg/kg/injection, schedule: Q01DX009 (ip), vehicle: saline with Tween-80) 103 % of control and 106 % of control; (dose: 800.0 mg/kg/injection, schedule: Q01DX009 (ip), vehicle: saline with Tween-80) 109 % of control and 94 % of control.
For `N=c1sccn1CC(O)c1ccccc1` (stereo not given), the T/C was 100 % of control (dose: 100.0 mg/kg/injection, schedule: Q01DX001 (ip), vehicle: Klucel (hydroxypropylcellulose) (HPC)) and 100 % of control (dose: 200.0 mg/kg/injection, schedule: Q01DX001 (ip), vehicle: Klucel (hydroxypropylcellulose) (HPC)).
In the case of `CNC(C#N)C(C)F` (stereo not given), the T/C is, setting by setting: (dose: 15.0 mg/kg/injection, schedule: Q01DX005 (ip), vehicle: saline) 98 % of control; (dose: 30.0 mg/kg/injection, schedule: Q01DX005 (ip), vehicle: saline) 99 % of control; (dose: 60.0 mg/kg/injection, schedule: Q01DX005 (ip), vehicle: saline) 99 % of control and 98 % of control.
Regarding `CNC(=O)OCC1=CC(=O)C(OC)=C(OC)C1=O`, the T/C is, setting by setting: (dose: 7.5 mg/kg/injection, schedule: Q01DX005 (ip), vehicle: saline with Tween-80) 104 % of control; (dose: 15.0 mg/kg/injection, schedule: Q01DX005 (ip), vehicle: saline with Tween-80) 100 % of control; (dose: 30.0 mg/kg/injection, schedule: Q01DX005 (ip), vehicle: saline with Tween-80) 100 % of control.
As to `O=c1[nH][nH]c2c1SCc1ccccc1-2`, the T/C is 110 % of control (dose: 50.0 mg/kg/injection, schedule: Q01DX009 (ip), vehicle: saline with Tween-80); 117 % of control under setting [4]; 86 % of control under setting [13].
As to `Cc1cc(NC(=O)c2ccc(N=Nc3cc(S(=O)(=O)O)c4ccccc4c3O)cc2)ccc1N=Nc1ccc2cc(S(=O)(=O)O)cc(S(=O)(=O)O)c2c1`, the T/C under setting [14] is 102 % of control and 97 % of control; the T/C under setting [15] was 99 % of control and 97 % of control; the T/C under setting [8] is 101 % of control and 111 % of control; the T/C under setting [9] is 102 % of control and 109 % of control and 117 % of control; the T/C under setting [10] is 101 % of control.
With `N#Cc1ncc(C(Cl)Cl)nc1Cl`, the T/C was 108 % of control under setting [11] and 106 % of control under setting [12].
`CCc1c(C)nc2cc(-c3cc(C)n4c(=O)c(CC)c(C)nc4c3)cc(C)n2c1=O`: the T/C is 90 % of control under setting [1], 96 % of control under setting [2] and 100 % of control under setting [3].
`COC1CC(=O)C2(C)C3CCC4(C)C(C(C)C5CC(C)=C(CO)C(=O)O5)CCC4C3CC3OC32C1O` (stereo not given): the T/C was 105 % of control (dose: 10.12 mg/kg/injection, schedule: Q01DX009 (ip), vehicle: saline + alcohol); 96 % of control (dose: 20.25 mg/kg/injection, schedule: Q01DX009 (ip), vehicle: saline + alcohol); 94 % of control (dose: 40.5 mg/kg/injection, schedule: Q01DX009 (ip), vehicle: saline + alcohol).
For `Cc1cc(C)cc(C(=O)NC(=C(NC(=O)c2cc(C)cc(C)c2)c2ccncc2)c2ccncc2)c1` (mixture of isomers), the T/C was 96 % of control under setting [14]; 90 % of control under setting [15]; 86 % of control and 90 % of control under setting [8].
Consider `COc1cc2c(NCCCCCCO[N+](=O)[O-])ncnc2c(OC)c1OC`, for which the T/C under setting [5] is 100 % of control, the T/C under setting [6] is 103 % of control and the T/C under setting [7] is 100 % of control.
For the molecule `C=C(C)C(=O)OCC1CO1` (stereo not given), the T/C was 100 % of control (dose: 50.0 mg/kg/injection, schedule: Q01DX009 (ip), vehicle: water); 108 % of control (dose: 100.0 mg/kg/injection, schedule: Q01DX009 (ip), vehicle: water); 120 % of control (dose: 200.0 mg/kg/injection, schedule: Q01DX009 (ip), vehicle: water).
As to `CCOC(OCC)c1ccc(Cl)cc1`, the T/C is 100 % of control (dose: 100.0 mg/kg/injection, schedule: Q04DX003 (ip), vehicle: saline with Tween-80); 105 % of control (dose: 200.0 mg/kg/injection, schedule: Q04DX003 (ip), vehicle: saline with Tween-80); 106 % of control (dose: 400.0 mg/kg/injection, schedule: Q04DX003 (ip), vehicle: saline with Tween-80).
In the case of `c1cc(-c2cc3ccc(C4=NCCN4)cc3[nH]2)ccc1C1=NCCN1`, the T/C by setting is: (dose: 6.25 mg/kg/injection, schedule: Q04DX003 (ip), vehicle: saline) 116 % of control; (dose: 12.5 mg/kg/injection, schedule: Q04DX003 (ip), vehicle: saline) 118 % of control; (dose: 50.0 mg/kg/injection, schedule: Q04DX003 (ip), vehicle: saline) 154 % of control and 171 % of control and 172 % of control.
